Assay results: ChEMBL document CHEMBL1140305, “Three-dimensional quantitative structure-activity relationship analyses of beta-lactam antibiotics and tripeptides as substrates of the mammalian H+/peptide cotransporter PEPT1” (J Med Chem, 2005)
pKi: −log10 of the molar value. Non-standard residues stand in square brackets, D forms with d. Residues, ends and D or L forms follow the SMILES beside them. *: point of attachment. Bip = N[C@@H](Cc1ccc(-c2ccccc2)cc1)C(=O)O; NMeT = CN[C@H](C(=O)O)[C@@H](C)O; OBn = c1ccc(CO*)cc1; Bn = c1ccc(C*)cc1

Biological target: T1, Solute carrier family 15 member 1 (Homo sapiens, UniProt P46059)
T1 sequence (P46059 whole entry): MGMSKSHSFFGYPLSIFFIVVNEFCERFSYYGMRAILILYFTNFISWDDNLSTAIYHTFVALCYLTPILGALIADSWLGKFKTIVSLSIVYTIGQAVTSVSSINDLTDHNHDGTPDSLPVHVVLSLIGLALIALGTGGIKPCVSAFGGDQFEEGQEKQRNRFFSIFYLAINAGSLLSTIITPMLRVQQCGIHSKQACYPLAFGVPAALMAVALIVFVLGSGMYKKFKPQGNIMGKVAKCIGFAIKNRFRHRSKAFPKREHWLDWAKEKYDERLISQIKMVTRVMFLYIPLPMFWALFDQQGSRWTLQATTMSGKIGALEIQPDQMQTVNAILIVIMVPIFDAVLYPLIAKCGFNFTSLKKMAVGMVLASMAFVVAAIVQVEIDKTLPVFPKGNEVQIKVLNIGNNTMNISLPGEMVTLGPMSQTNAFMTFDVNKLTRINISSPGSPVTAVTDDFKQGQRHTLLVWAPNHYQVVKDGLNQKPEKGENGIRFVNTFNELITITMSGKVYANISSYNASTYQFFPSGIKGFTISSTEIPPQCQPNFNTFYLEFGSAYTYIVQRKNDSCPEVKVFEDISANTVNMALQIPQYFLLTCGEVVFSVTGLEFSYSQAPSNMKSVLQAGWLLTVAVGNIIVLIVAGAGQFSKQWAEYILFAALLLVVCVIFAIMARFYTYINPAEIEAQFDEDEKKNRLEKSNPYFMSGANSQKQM
Assay: Binding affinity against membrane transport protein PEPT1 in human Caco-2 cells
Format: cell-based

SMILES | pKi | pKi (caco-2)
[N-]=[N+]=N[C@H](C(=O)NC1C(=O)N2C(C(=O)O)=CCSC12)c1ccccc1 (stereo partly specified) | 1.82 | 
C[C@H](N)C(=O)N[C@@H](C)C(=O)N[C@H](C)C(=O)O | 2.08 | 
C[C@@H](N)C(=O)N[C@H](CCCCN)C(=O)O | < 1.52 | 
C[C@H](N)C(=O)NC(=O)C1CCCCC1 | 2.82 | 
C[C@H](N)C(=O)N[C@H](CCCCN)C(=O)O | < 1.52 | 
C[C@H](N)C(=O)N[C@H](Cc1ccccc1)C(=O)N[C@@H](C)C(=O)O | 1.72 | 
C[C@H](N)C(=O)N[C@H](C)C(=O)N[C@@H](C)C(=O)O | 1.77 | 
CC(C)[C@H](N)C(=O)N1CCC[C@H]1C(=O)N1CCC[C@@H]1C(=O)O |  | 2.37
C[C@H](NC(=O)[C@H](C)NOC(=O)[C@@H](C)N)C(=O)O | 2.10 | 
C[C@@H](N)C(=O)N[C@@H](CCCCN)C(=O)O | 2.15 | 
C[C@@H](N)C(=O)N1CCC[C@H]1C(=O)O | 2.30 | 
NCCCC[C@H](NC(=O)[C@@H](N)CC(=O)O)C(=O)O (H-Asp-Lys-OH) | 3.07 | 
NCCCC[C@H](NC(=O)[C@@H](N)CCC(=O)O)C(=O)O (H-Glu-Lys-OH) | 3.29 | 
NCC(=O)N[C@@H](Cc1c[nH]cn1)C(=O)O (H-Gly-His-OH) | 2.39 | 
CC(C)C[C@H](N)C(=O)N[C@@H](CCCN=C(N)N)C(=O)N1CCC[C@H]1C(=O)O (H-Leu-Arg-Pro-OH) | 3.52 | 
CC(C)C[C@H](N)C(=O)NCC(=O)NCC(=O)O (H-Leu-Gly-Gly-OH) | 3.41 | 
C[C@H](NC(=O)[C@@H](N)CCCCN)C(N)=O (H-Lys-Ala-NH2) | 2.19 | 
C[C@H](NC(=O)[C@@H](N)CCCCN)C(=O)O (H-Lys-Ala-OH) | 3.47 | 
NCCCC[C@H](N)C(=O)N[C@@H](CCC(=O)O)C(=O)O (H-Lys-Glu-OH) | 2.89 | 
N=C(N)NCCC[C@H](NC(=O)[C@@H]1CCCN1)C(=O)O (H-Pro-Arg-OH) | 2.60 | 
O=C(O)CNC(=O)CNC(=O)[C@@H]1CCCN1 (H-Pro-Gly-Gly-OH) | 1.80 | 

SMILES | pKi | pKi (caco-2)
NCCCC[C@H](NC(=O)[C@H](Cc1ccccc1)NC(=O)[C@@H]1CCCN1)C(=O)O (H-Pro-Phe-Lys-OH) | 2.70 | 
O=C(O)[C@@H]1CCCN1C(=O)[C@@H]1CCCN1 (H-Pro-Pro-OH) | 2.92 | 
C[C@@H](O)[C@H](N)C(=O)N[C@@H](CCCCN)C(=O)N[C@@H](Cc1ccc(O)cc1)C(=O)O (H-Thr-Lys-Tyr-OH) | 2.96 | 
N[C@@H](Cc1ccc(O)cc1)C(=O)NCC(=O)NCC(=O)O (H-Tyr-Gly-Gly-OH) | 3.46 | 
CC[C@H](C)[C@H](NC(=O)[C@@H]1CCCN1C(=O)[C@@H](N)Cc1ccc(O)cc1)C(=O)O (H-Tyr-Pro-Ile-OH) | 3.60 | 
C[C@@H](NC(=O)[C@@H](N)Cc1ccc(O)cc1)C(=O)NCC(=O)O (H-Tyr-[dA]-Gly-OH) | 1.85 | 
CC(C)C[C@@H](N)C(=O)NCC(=O)NCC(=O)O (H-[dL]-Gly-Gly-OH) | 1.60 | 
CC(C)[C@H](NC(=O)[C@H](N)Cc1ccc(O)cc1)C(=O)NCC(=O)O (H-[dY]-Val-Gly-OH) | 1.85 | 
C[C@H](N)C(=O)N1CCCC1C(=O)O (single isomer, unassigned) | 1.82 | 
C[C@H](N)C(=O)N[C@@H](C)C(=O)O (stereo in doubt; 47) | 2.68 | 
O=C(O)C[C@H](NC(=O)[C@@H]1CCCN1)C(=O)O (stereo in doubt; 64) | 2.01 | 
CSCC[C@H](NC(=O)[C@H](CCSC)NC(=O)[C@@H](N)CCSC)C(=O)O (stereo in doubt; 119) | 3.28 | 
O=C(O)C[C@H](NC(=O)[C@@H]1CCCN1)C(=O)O (stereo in doubt; 121) |  | 2.01
Cc1nnc(SCC2=C(C(=O)O)N3C(=O)[C@@H](NC(=O)Cn4cnnn4)[C@H]3SC2)s1 [CEFAZOLIN] | < 1.52 | 
CO[C@@]1(NC(=O)Cc2cccs2)C(=O)N2C(C(=O)O)=C(COC(N)=O)CS[C@@H]21 [CEFOXITIN] | 2.00 | 
COCC1=C(C(=O)O)N2C(=O)[C@@H](NC(=O)/C(=N\OC)c3csc(N)n3)[C@H]2SC1 [CEFPODOXIME] | < 1.52 | 
CC1=C(C(=O)O)N2C(=O)[C@@H](NC(=O)[C@H](N)C3=CCC=CC3)[C@H]2SC1 [CEPHRADINE] | 2.01 | 
Cc1onc(-c2ccccc2Cl)c1C(=O)N[C@@H]1C(=O)N2[C@@H]1SC(C)(C)[C@@H]2C(=O)O [CLOXACILLIN] | 2.60 | 
Cc1onc(-c2c(F)cccc2Cl)c1C(=O)N[C@@H]1C(=O)N2[C@@H]1SC(C)(C)[C@@H]2C(=O)O [FLOXACILLIN] | 2.49 | 
CC1(C)S[C@@H]2[C@H](NC(=O)COc3ccccc3)C(=O)N2[C@H]1C(=O)O [PENICILLIN V] | 1.68 | 
CCN1CCN(C(=O)N[C@@H](C(=O)N[C@@H]2C(=O)N3[C@@H]2SC(C)(C)[C@@H]3C(=O)O)c2ccccc2)C(=O)C1=O [PIPERACILLIN] | < 1.52 | 

Further lines, results first:

pKi | pKi (caco-2) | SMILES
3.74 |  | C[C@H](N)C(=O)N[C@@H](C)C(=O)N[C@@H](C)C(=O)O
4.05 |  | C[C@H](NC(=O)[C@@H](N)Cc1ccc(OCc2ccccc2)cc1)C(=O)O
3.68 |  | C[C@H](N)C(=O)N[C@@H](CCCCN)C(=O)O
4.70 |  | C[C@H](NC(=O)[C@H](Cc1ccccc1)NCc1ccccc1)C(=O)O
3.62 |  | N[C@@H](Cc1c[nH]c2ccccc12)C(=O)NCC(=O)N[C@@H](Cc1ccc(O)cc1)C(=O)O
4.00 |  | CC(C)C[C@H](NC(=O)[C@H](Cc1ccccc1)NC(=O)[C@H](C)N)C(=O)O (H-Ala-Phe-Leu-OH)
3.82 |  | CC(C)C[C@H](NC(=O)[C@@H]1CCCN1C(=O)[C@H](C)N)C(=O)O (H-Ala-Pro-Leu-OH)
4.05 |  | C[C@H](NC(=O)[C@@H](N)CC(=O)OCc1ccccc1)C(=O)O (H-Asp(OBn)-Ala-OH)
3.70 |  | N[C@@H](CCC(=O)O)C(=O)N[C@@H](Cc1ccccc1)C(=O)N[C@@H](Cc1ccc(O)cc1)C(=O)O (H-Glu-Phe-Tyr-OH)
3.92 |  | CC[C@H](C)[C@H](N)C(=O)N[C@@H](Cc1ccc(O)cc1)C(=O)O (H-Ile-Tyr-OH)
3.70 |  | CC[C@H](C)[C@H](N)C(=O)N[C@H](C(=O)N[C@@H](Cc1ccc(O)cc1)C(=O)O)C(C)C (H-Ile-Val-Tyr-OH)
3.96 |  | CC(C)C[C@H](N)C(=O)N[C@@H](C)C(=O)N[C@@H](CCCNC(=N)N)C(=O)O (H-Leu-Ala-Arg-OH)
4.00 |  | CC(C)C[C@H](N)C(=O)N1CCC[C@H]1C(=O)N[C@@H](CCCN=C(N)N)C(=O)O (H-Leu-Pro-Arg-OH)
3.74 |  | CC(C)C[C@H](N)C(=O)N1CCC[C@H]1C(=O)O (H-Leu-Pro-OH)
3.96 |  | CC(C)C[C@H](NC(=O)[C@H]([C@@H](C)O)N(C)C(=O)[C@@H](N)CC(C)C)C(=O)O (H-Leu-[NMeT]-Leu-OH)
3.85 |  | CC(C)C[C@H](NC(=O)[C@H](CC(C)C)NC(=O)[C@@H](N)Cc1ccccc1)C(=O)O (H-Phe-Leu-Leu-OH)
4.05 |  | C[C@H](NC(=O)[C@@H](N)COCc1ccccc1)C(=O)O (H-Ser(Bn)-Ala-OH)
3.80 |  | C[C@H](NC(=O)[C@@H](N)Cc1c[nH]c2ccccc12)C(=O)O (H-Trp-Ala-OH)
3.77 |  | N[C@@H](Cc1c[nH]c2ccccc12)C(=O)N[C@@H](Cc1c[nH]c2ccccc12)C(=O)N[C@@H](Cc1c[nH]c2ccccc12)C(=O)O (H-Trp-Trp-Trp-OH)
3.85 |  | N[C@@H](Cc1ccc(O)cc1)C(=O)N[C@@H](Cc1ccccc1)C(=O)O (H-Tyr-Phe-OH)
3.85 |  | CC(C)C[C@H](NC(=O)[C@H](C)NC(=O)[C@@H](N)C(C)C)C(=O)O (H-Val-Ala-Leu-OH)
5.00 |  | C[C@H](NC(=O)[C@@H](N)Cc1ccc(-c2ccccc2)cc1)C(=O)O (H-[Bip]-Ala-OH)
4.00 |  | CSCC[C@H](NC(=O)[C@H](CCSC)NC(=O)[C@@H](N)CCSC)C(=O)O (stereo in doubt; 10)
3.85 |  | C[C@H](N)C(=O)N[C@@H](C)C(=O)O (stereo in doubt; 110)
